Data as given in patent US11896583B2, “Tinostamustine for use in treating ovarian cancer” (EURO-CELTIQUE S.A., priority 2017, dated 2024).

Tested on: tumour spheroids from primary ovarian cancer tissue
Assay: Ovarian cancer spheroid model, ATP assay (CellTiter-Glo) of cell viability / metabolic activity
Procedure: Fresh primary ovarian cancer samples were obtained after informed consent of the individual patient was given. Patients were recruited following clinical diagnosis, and prior to chemotherapy commencing.
Heterotypic tumour spheroids were prepared from the individual primary ovarian cancer tissue. The tumour samples were mechanically and enzymatically digested using an enzyme cocktail (Roche, Penzberg Germany), cell viability determined using the trypan-blue exclusion test, and spheroids seeded at a cell density of 50,000 using a modified liquid overlay method. After 48 h in cell culture under standard conditions, successful spheroid formation was documented photographically before starting treatment.
Each experiment was repeated six times, and both untreated (medium) control and two positive controls (carboplatin+paclitaxel and vorinostat) were used under the same culture conditions. Treatment efficacy, i.e. treatment-induced reduction of the cellular metabolic activity (cell viability) was analyzed using a standard ATP assay.
Once the feasibility study was completed, tumour spheroids consisting of 50,000 cells were prepared from the individual primary ovarian cancer tissue as described above. After 48 h, spheroid formation was documented photographically before starting treatment. […] Treatment efficacy was evaluated using a standard ATP assay, details of which are provided below.
ATP assay test from Promega: CellTiter-Glo®. The CellTiter-Glo® Luminescent Cell Viability Assay is a homogeneous method to determine the number of viable cells in culture based on quantitation of the ATP present, which signals the presence of metabolically active cells. […] The homogeneous assay procedure involves adding a single reagent (CellTiter-Glo® Reagent) directly to cells cultured in serum-supplemented medium.
The homogeneous “add-mix-measure” format results in cell lysis and generation of a luminescent signal proportional to the amount of ATP present.

SMILES	reduction in cell viability to (FIG. 1, patient #5284, 5 μM, after 48 h) [%]	reduction in cell viability (compared to the untreated control) (FIG. 1, patient #5284, 7.5 μM) [%]	reduction in cell viability (compared to the untreated control) (FIG. 1, patient #5284, 10 μM) [%]	cell viability compared to control untreated spheroids (FIG. 1, patient #5284, 2.5-10 μM)	reduction in cell viability compared with carboplatin+paclitaxel (FIG. 1, patient #5284, 5, 7.5 and 10 μM, after 48 h)	reduction in cell viability compared with carboplatin+paclitaxel (FIG. 1, patient #5284, 5, 7.5 and 10 μM, after 72 h)	reduction in cell viability compared with vorinostat (FIG. 1, patient #5284, 5, 7.5 and 10 μM, all time points)	time dependence of cell viability (FIG. 1, patient #5284, higher concentrations)	time dependence of cell viability (FIG. 1, patient #5284, lower concentrations, 48 h to 96 h)	efficacy compared with positive controls (FIG. 2, patient #5285, feasibility study)	reduction in cell viability, combination therapy (FIG. 4, n=8, EDO-S101 5 μM, carboplatin 110 μM, paclitaxel 1.79 μM, 72 h)	effect of adding EDO-S101 to other treatments (FIG. 6, patient #5295, 72 h)	efficacy compared with carboplatin (FIG. 6, patient #5295, 72 h)	metabolic activity (ATP assay) (FIG. 6, patient #5295, 72 h)	effect of adding EDO-S101 to other treatments (FIG. 7, patient #5296, 72 h)	metabolic activity (ATP assay) (FIG. 7, patient #5296, 72 h)	metabolic activity (ATP assay) (FIG. 8, patient #5310, 72 h, samples from ovary and omentum)	metabolic activity (ATP assay) (FIG. 9, patient #5311, 72 h)	metabolic activity (ATP assay) (FIG. 10, patient #5329, 72 h)
Cn1c(CCCCCCC(=O)NO)nc2cc(N(CCCl)CCCl)ccc21 [EDO-S101, 7-(5-(bis(2-chloroethyl)amino)-1-methyl-1H-benzo[d]imidazol-2-yl)-N-hydroxyheptanamide]	50	~80	~80	A reduction in cell viability was observed	greater than that in spheroids treated with carboplatin+paclitaxel after 48 h	comparable after 72 h	greater than that in spheroids treated with vorinostat at all time points	did not decrease in a time dependent manner	decreased in a time dependent manner	better than both carboplatin+paclitaxel or vorinostat	median reduction in cell viability comparable to carboplatin+paclitaxel, but with enhanced average potency across the experimental group	further reduced metabolic activity when used in combination with carboplatin, paclitaxel and carboplatin+paclitaxel	comparable to that of carboplatin	shows a reduction in metabolic activity compared to the negative control	enhanced efficacy when in combination with carboplatin, paclitaxel and carboplatin+paclitaxel	enhanced reduction in metabolic activity compared to vorinostat, carboplatin or paclitaxel	effective in treating ovarian cancer from the omentum	comparable efficacy to that observed in spheroids treated with vorinostat	comparable or improved activity compared to vorinostat and carboplatin as monotherapies
CC(=O)O[C@H]1C(=O)[C@@]2(C)[C@H]([C@H](OC(=O)c3ccccc3)[C@]3(O)C[C@H](OC(=O)[C@H](O)[C@@H](NC(=O)c4ccccc4)c4ccccc4)C(C)=C1C3(C)C)[C@]1(OC(C)=O)CO[C@@H]1C[C@@H]2O [paclitaxel, reference compound]	–	–	–	–	–	–	–	–	–	–	–	–	–	negligible efficacy	–	–	–	–	–
O=C(CCCCCCC(=O)Nc1ccccc1)NO [vorinostat, reference compound]	–	–	–	–	–	–	–	–	–	–	–	–	–	negligible efficacy	–	–	–	–	–
